Reference: paper PMC9801504, “Stable Isotopomers of myo-Inositol Uncover a Complex MINPP1-Dependent Inositol Phosphate Network” (ACS Central Science, 2022)

Target: T1, MINPP1 (Homo sapiens, UniProt Q9UNW1)
T1 construct: recombinant, expressed in and purified from E. coli; borders and tags only in the supplement
T1 sequence (Q9UNW1 31-487): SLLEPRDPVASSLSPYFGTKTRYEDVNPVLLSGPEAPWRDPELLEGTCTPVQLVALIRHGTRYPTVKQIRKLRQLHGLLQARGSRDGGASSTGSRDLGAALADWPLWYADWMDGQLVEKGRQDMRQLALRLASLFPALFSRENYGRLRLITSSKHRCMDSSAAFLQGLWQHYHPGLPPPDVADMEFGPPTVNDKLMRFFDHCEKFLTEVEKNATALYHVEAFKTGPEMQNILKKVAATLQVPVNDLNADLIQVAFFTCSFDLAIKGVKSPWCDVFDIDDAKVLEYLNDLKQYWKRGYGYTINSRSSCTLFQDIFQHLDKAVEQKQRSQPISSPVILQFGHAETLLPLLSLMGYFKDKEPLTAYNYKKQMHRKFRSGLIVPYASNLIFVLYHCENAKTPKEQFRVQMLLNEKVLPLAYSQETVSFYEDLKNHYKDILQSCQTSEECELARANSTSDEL
Experiment: 2D NMR of dephosphorylation of [[…]6]InsP5[2OH]
Type: biochemical
Details: read-out: apparent IC50

O=P(O)(O)O[C@H]1[C@H](OP(=O)(O)O)[C@@H](OP(=O)(O)O)[C@H](OP(=O)(O)O)[C@@H](OP(=O)(O)O)[C@H]1OP(=O)(O)O [InsP6]
IC50: 2 µM
